Measurements taken from patent US11014911B2, “CDK2 inhibitors” (Pfizer Inc., priority 2019, dated 2021).

Target: CDK2/Cyclin E1 full length (Homo sapiens (Human), UniProt P24941)
Experiment: CDK2/Cyclin E1 full length mobility shift assay
Type: biochemical

Ki | Structure (SMILES)
0.58 nM | CC[C@H](C)NC(=O)O[C@@H]1CC[C@H](c2cc(NC(=O)Cc3nnc(C)s3)n[nH]2)C1 [Example 344, (1R,3S)-3-(3-{[(5-methyl-1,3,4-thiadiazol-2-yl)acetyl]amino}-1H-pyrazol-5-yl)cyclopentyl (2S)-butan-2-ylcarbamate]
2.41 nM | O=C(Cc1cc(F)cc(F)c1)Nc1cc([C@@H]2CC[C@H](OC(=O)NC[C@H]3C[C@@H]3CO)C2)[nH]n1 [Example 579, (1S,3R)-3-(3-{[(3,5-difluorophenyl)acetyl]amino}-1H-pyrazol-5-yl)cyclopentyl {[(1S,2S)-2-(hydroxymethyl)cyclopropyl]-methyl}carbamate]
3.74 nM | CC[C@H](C)NC(=O)O[C@@H]1CC[C@H](c2cc(NC(=O)Cc3cn4cccnc4n3)n[nH]2)C1 [Example 354, (1R,3S)-3-{3-[(imidazo[1,2-a]pyrimidin-2-ylacetyl)amino]-1H-pyrazol-5-yl}cyclopentyl (2S)-butan-2-ylcarbamate]
3.64 nM | O=C(Cc1cc(F)cc(F)c1)Nc1cc([C@@H]2CC[C@H](OC(=O)NC[C@@H]3C[C@H]3CO)C2)[nH]n1 [Example 578, (1S,3R)-3-(3-{[(3,5-difluorophenyl)acetyl]amino}-1H-pyrazol-5-yl)cyclopentyl {[(1R,2R)-2-(hydroxymethyl)cyclopropyl]-methyl}carbamate]
3.19 nM | O=C(Cc1cc(F)cc(F)c1)Nc1cc([C@@H]2CC[C@H](OC(=O)NCC3CCOCC3)C2)[nH]n1 [Example 513, (1S,3R)-3-(3-{[(3,5-difluorophenyl)acetyl]amino}-1H-pyrazol-5-yl)cyclopentyl (tetrahydro-2H-pyran-4-ylmethyl)carbamate]
1.04 nM | COc1cnc(CC(=O)Nc2cc([C@H]3CC[C@@H](OC(=O)N4[C@@H](C)C[C@@H]4C)C3)[nH]n2)cn1 [Example 610, (1R,3S)-3-(3-{[(5-methoxypyrazin-2-yl)acetyl]amino}-1H-pyrazol-5-yl)cyclopentyl (2S,4S)-2,4-dimethylazetidine-1-carboxylate]
2.77 nM | C[C@@H]1CCN1C(=O)O[C@@H]1CC[C@H](c2cc(NC(=O)Cc3cnn(C)c3)n[nH]2)C1 [Example 587, (1R,3S)-3-(3-{[(1-methyl-1H-pyrazol-4-yl)acetyl]amino}-1H-pyrazol-5-yl)cyclopentyl (2R)-2-methylazetidine-1-carboxylate]
2.86 nM | Cc1cc(CC(=O)Nc2cc([C@H]3CC[C@@H](OC(=O)N4CCC4C)C3)[nH]n2)on1 (single isomer, unassigned) [Example 590]
4.15 nM | CC(CC(F)(F)F)NC(=O)O[C@@H]1CC[C@H](c2cc(NC(=O)c3ccnn3CCN(C)C)[nH]n2)C1 (single isomer, unassigned) [Example 409]
4 nM | Cc1cc(CC(=O)Nc2cc([C@H]3CC[C@@H](OC(=O)N4C[C@@](C)(O)[C@@H]4C)C3)[nH]n2)on1 [Example 622, (1R,3S)-3-(3-{[(3-methyl-1,2-oxazol-5-yl)acetyl]amino}-1H-pyrazol-5-yl)cyclopentyl (2S,3R)-3-hydroxy-2,3-dimethylazetidine-1-carboxylate]
2.11 nM | Cc1cc(CC(=O)Nc2cc([C@H]3CC[C@@H](OC(=O)N4CCC[C@H]4C)C3)[nH]n2)on1 [Example 633, (1R,3S)-3-(3-{[(3-methyl-1,2-oxazol-5-yl)acetyl]amino}-1H-pyrazol-5-yl)cyclopentyl (2R)-2-methylpyrrolidine-1-carboxylate]
1.85 nM | CCC(O)CNC(=O)O[C@@H]1CC[C@H](c2cc(NC(=O)Cc3ccc(OC)cc3)n[nH]2)C1 (single isomer, unassigned) [Example 541]
1.29 nM | Cc1c(CC(=O)Nc2cc([C@H]3CC[C@@H](OC(=O)NC(C)CC(F)(F)F)C3)[nH]n2)cnn1C (single isomer, unassigned) [Example 400]
2.65 nM | CCC(O)CNC(=O)O[C@@H]1CC[C@H](c2cc(NC(=O)Cc3ccc(OC)cc3)n[nH]2)C1 (single isomer, unassigned) [Example 540]

The remaining lines, values behind:

Structure (SMILES) | Ki
Cc1coc(CC(=O)Nc2cc([C@H]3CC[C@@H](OC(=O)NC4(C)CC4)C3)[nH]n2)n1 [Example 422, (1R,3S)-3-(3-{[(4-methyl-1,3-oxazol-2-yl)acetyl]amino}-1H-pyrazol-5-yl)cyclopentyl (1-methylcyclopropyl)carbamate] | 0.55 nM
Cc1cnc(CC(=O)Nc2cc([C@H]3CC[C@@H](OC(=O)N(C)C(C)C)C3)[nH]n2)o1 [Example 290, (1R,3S)-3-(3-{[(5-methyl-1,3-oxazol-2-yl)acetyl]amino}-1H-pyrazol-5-yl)cyclopentyl methyl(propan-2-yl)carbamate] | 1.45 nM
CC[C@H](C)NC(=O)O[C@@H]1CC[C@H](c2cc(NC(=O)Cc3cc(OC)ncc3OC)n[nH]2)C1 [Example 358, (1R,3S)-3-(3-{[(2,5-dimethoxypyridin-4-yl)acetyl]amino}-1H-pyrazol-5-yl)cyclopentyl (2S)-butan-2-ylcarbamate] | 1.65 nM
CC[C@H](C)NC(=O)O[C@@H]1CC[C@H](c2cc(NC(=O)Cc3cnn(C)c3C(F)(F)F)n[nH]2)C1 [Example 365, (1R,3S)-3-[3-({[1-methyl-5-(trifluoromethyl)-1H-pyrazol-4-yl]acetyl}amino)-1H-pyrazol-5-yl]cyclopentyl (2S)-butan-2-ylcarbamate] | 2.08 nM
CC(C)(C)NC(=O)O[C@@H]1CC[C@H](c2cc(NC(=O)Cc3cc(Cl)ccn3)n[nH]2)C1 [Example 115] | 0.23 nM
COc1cc(CC(=O)Nc2cc([C@H]3CC[C@@H](OC(=O)NC(C)C)C3)[nH]n2)c(OC)cn1 [Example 285, (1R,3S)-3-(3-{[(2,5-dimethoxypyridin-4-yl)acetyl]amino}-1H-pyrazol-5-yl)cyclopentyl propan-2-ylcarbamate] | 3.97 nM
COc1cnc(CC(=O)Nc2cc([C@H]3CC[C@@H](OC(=O)NC(C)(C)C)C3)[nH]n2)s1 [Example 311, (1R,3S)-3-(3-{[(5-methoxy-1,3-thiazol-2-yl)acetyl]amino}-1H-pyrazol-5-yl)cyclopentyl tert-butylcarbamate] | 0.36 nM
Cc1ccc(C(=O)Nc2cc([C@H]3CC[C@@H](OC(=O)NC4(CC(F)(F)F)CC4)C3)[nH]n2)cn1 [Example 452, (1R,3S)-3-(3-{[(6-methylpyridin-3-yl)carbonyl]amino}-1H-pyrazol-5-yl)cyclopentyl [1-2,2,2-trifluoroethyl)cyclopropyl] carbamate] | 0.51 nM
COc1cnc(CC(=O)Nc2cc([C@H]3CC[C@@H](OC(=O)NC(C)C)C3)[nH]n2)s1 [Example 280, (1R,3S)-3-(3-{[(5-methoxy-1,3-thiazol-2-yl)acetyl]amino}-1H-pyrazol-5-yl)cyclopentyl propan-2-ylcarbamate] | 2.12 nM
CC[C@H](C)NC(=O)O[C@@H]1CC[C@H](c2cc(NC(=O)Cc3cnc(OC)cn3)n[nH]2)C1 [Example 347, (1R,3S)-3-(3-{[(5-methoxypyrazin-2-yl)acetyl]amino}-1H-pyrazol-5-yl)cyclopentyl (2S)-butan-2-ylcarbamate] | 0.37 nM
Cn1ncc(CC(=O)Nc2cc([C@H]3CC[C@@H](OC(=O)NCCC(F)(F)F)C3)[nH]n2)n1 [Example 217, (1R,3S)-3-(3-{[(2-methyl-2H-1,2,3-triazol-4-yl)acetyl]amino}-1H-pyrazol-5-yl)cyclopentyl (3,3,3-trifluoropropyl)carbamate] | 2.22 nM
COc1cc(CC(=O)Nc2cc([C@H]3CC[C@@H](OC(=O)NC(C)CC(F)F)C3)[nH]n2)ccn1 (single isomer, unassigned) [Example 99] | 0.09 nM
CCCNC(=O)O[C@@H]1CC[C@H](c2cc(NC(=O)c3ccnn3CCN(C)C)n[nH]2)C1 [Example 195, (1R,3S)-3-{3-[({1-[2-(dimethylamino)ethyl]-1H-pyrazol-5-yl}carbonyl)amino]-1H-pyrazol-5-yl}cyclopentyl propylcarbamate] | 4.39 nM
COc1cc(C(=O)Nc2cc([C@H]3CC[C@@H](OC(=O)NC(C)(C)C)C3)[nH]n2)n(C)n1 [Example 302, (1R,3S)-3-(3-{[(3-methoxy-1-methyl-1H-pyrazol-5-yl)carbonyl]amino}-1H-pyrazol-5-yl)cyclopentyl tert-butylcarbamate] | 0.5 nM
COc1cc(CC(=O)Nc2cc([C@H]3CC[C@@H](OC(=O)N[C@@H](C)[C@H](C)F)C3)[nH]n2)ccn1 (single isomer, unassigned) [Example 384, (1R,3S)-3-(3-{[(2-methoxypyridin-4-yl)acetyl]amino}-1H-pyrazol-5-yl)cyclopentyl [(2S*,3S*)-3-fluorobutan-2-yl]carbamate] | 1.24 nM
COc1cc(C(=O)Nc2cc([C@H]3CC[C@@H](OC(=O)NC4(C)CCOC4)C3)[nH]n2)n(C)n1 (single isomer, unassigned) [Example 480] | 2.01 nM
CC1(NC(=O)O[C@@H]2CC[C@H](c3cc(NC(=O)Cc4ccon4)n[nH]3)C2)CC1 [Example 419, (1R,3S)-3-{3-[(1,2-oxazol-3-ylacetyl)amino]-1H-pyrazol-5-yl}cyclopentyl (1-methylcyclopropyl)carbamate] | 0.36 nM
CCNC(=O)O[C@@H]1CC[C@H](c2cc(NC(=O)Cc3cccc4ncsc34)n[nH]2)C1 [Example 235, (1R,3S)-3-{3-[(1,3-benzothiazol-7-ylacetyl)amino]-1H-pyrazol-5-yl}cyclopentyl ethylcarbamate] | 2.33 nM
CC[C@H](C)NC(=O)O[C@@H]1CC[C@H](c2cc(NC(=O)Cc3ncc(C)s3)n[nH]2)C1 [Example 341, (1R,3S)-3-(3-{[(5-methyl-1,3-thiazol-2-yl)acetyl]amino}-1H-pyrazol-5-yl)cyclopentyl (2S)-butan-2-ylcarbamate] | 0.64 nM
CC(C)(C)CNC(=O)O[C@@H]1CC[C@H](c2cc(NC(=O)Cc3ccno3)n[nH]2)C1 [Example 418, (1R,3S)-3-{3-[(1,2-oxazol-5-ylacetyl)amino]-1H-pyrazol-5-yl}cyclopentyl (2,2-dimethylpropyl)carbamate] | 2.69 nM
CCCNC(=O)O[C@H]1CC[C@@H](c2cc(NC(=O)Cc3cn4c(C)c(C)sc4n3)n[nH]2)C1 [Example 200, (1S,3R)-3-(3-{[(2,3-dimethylimidazo[2,1-b][1,3]thiazol-6-yl)acetyl]amino}-1H-pyrazol-5-yl)cyclopentyl propylcarbamate] | 2.87 nM
